Patent US6737383B1, “Herbicidal oxadiazolidines” (priority 1999, dated 2004)

How the values were obtained:
bedstraw = test: Test B pre/postemergence bedstraw; assay type: in vivo, Galium aparine; conditions: Postemergence, Rate 250 g/ha; scale of 0 to 10, 0 is no effect, 10 is complete control
Outline: (§1)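 Response is a visual 0-to-10 score relative to untreated plants, where 0 means no effect and 10 means complete control, taken twelve to sixteen days after application. Treatments went onto soil at planting and onto foliage of 1- to 4-leaf plants, using a surfactant-containing non-phytotoxic solvent.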

surinam grass = test: Test B pre/postemergence surinam grass; assay type: in vivo, Brachiaria decumbens
Outline: as §1

cocklebur = test: Test B pre/postemergence cocklebur; assay type: in vivo, Xanthium strumarium
Outline: as §1

sugar beet = test: Test B pre/postemergence sugar beet; assay type: in vivo, Beta vulgaris
Outline: as §1

pigweed = test: Test B pre/postemergence pigweed; assay type: in vivo, Amaranthus retroflexus
Outline: as §1

giant foxtail = test: Test B pre/postemergence giant foxtail; assay type: in vivo, Setaria faberii
Outline: as §1

rice = test: Test B flood test rice; assay type: in vivo, Oryza sativa
Outline: (§2)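 Flood test on plants grown to the 2-leaf stage; treated plants kept in greenhouse twelve to sixteen days, then visually rated against controls on a 0 (no effect) to 10 (complete control) scale.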

bamyardgrass = test: Test B flood test barnyardgrass; assay type: in vivo, Echinochloa crus-galli
Outline: as §2

duck salad = test: Test B flood test duck salad; assay type: in vivo, Heteranthera limosa
Outline: as §2

morningglory = test: Test B pre/postemergence morningglory; assay type: in vivo, Ipomoea hederacea
Outline: as §1

purple nutsedge = test: Test B pre/postemergence purple nutsedge; assay type: in vivo, Cyperus rotundus
Outline: as §1

velvetleaf = test: Test B pre/postemergence velvetleaf; assay type: in vivo, Abutilon theophrasti
Outline: as §1

blackgrass = test: Test B pre/postemergence blackgrass; assay type: in vivo, Alopecurus myosuroides
Outline: as §1

corn = test: Test B pre/postemergence corn; assay type: in vivo, Zea mays
Outline: as §1

rape = test: Test B pre/postemergence rape; assay type: in vivo, Brassica napus
Outline: as §1

[1] = Postemergence, Rate 62 g/ha, scale 0 to 10, 0 is no effect, 10 is complete control
[2] = Postemergence, Rate 125 g/ha, scale of 0 to 10 where 0 is no effect and 10 is complete control
[3] = Postemergence, Rate 250 g/ha, scale of 0 to 10, 0 is no effect, 10 is complete control
[4] = Preemergence, Rate 62 g/ha, scale of 0 to 10 where 0 is no effect and 10 is complete control
[5] = Preemergence, Rate 125 g/ha, scale of 0 to 10 where 0 is no effect and 10 is complete control
[6] = Preemergence, Rate 250 g/ha, scale 0 to 10 (0 no effect, 10 complete control)
[7] = Preemergence, Rate 500 g/ha, scale of 0 to 10 where 0 is no effect and 10 is complete control
[8] = Rate 500 g/ha, Postemergence, scale 0 to 10, 0 is no effect, 10 is complete control
[9] = Rate 62 g/ha, flood test species, Pre-emergence, visual evaluation after twelve to sixteen days
[10] = Rate 125 g/ha, under heading Pre-emergence, flood test species, visual evaluation after twelve to sixteen days
[11] = Rate 250 g/ha, Pre-emergence (flood test species), scale 0 to 10, 0 is no effect, 10 is complete control
[12] = Rate 500 g/ha, Pre-emergence section of Table B, 0 to 10 scale (0 no effect, 10 complete control)

For `C#CC(C)n1c(=O)on(C(=O)N(c2ccc(Cl)cc2)C(C)C)c1=O` (racemic) [Compound 658], the “Bedstraw plant response rating” value (bedstraw) was 0, the “Plant response rating, B. signalgrass” value (surinam grass; [1]) was 0 and the “Plant response rating, B. signalgrass” value (surinam grass; [2]) was 0. The “B. signalgrass plant response rating” value (surinam grass; [3]) was 0, the “B. signalgrass plant response rating” value (surinam grass; [4]) was 0 and the “B. signalgrass plant response rating” value (surinam grass; [5]) was 0. For the same compound, the “Plant response rating, B. signalgrass” value (surinam grass; [6]) was 8, the “Plant response rating, B. signalgrass” value (surinam grass; [7]) was 8 and the “B. signalgrass plant response rating” value (surinam grass; [8]) was 0. For the same compound, the “Plant response rating, Cocklebur” value (cocklebur; [1]) was 0, the “Cocklebur plant response rating” value (cocklebur; [2]) was 0 and the “Cocklebur plant response rating” value (cocklebur; [3]) was 2. For the same compound, the “Cocklebur plant response rating” value (cocklebur; [4]) was 0, the “Cocklebur plant response rating” value (cocklebur; [5]) was 0 and the “Plant response rating, Cocklebur” value (cocklebur; [6]) was 0. The “Plant response rating, Cocklebur” value (cocklebur; [7]) was 0, the “Cocklebur plant response rating” value (cocklebur; [8]) was 5 and the “Plant response rating, Sugarbeets” value (sugar beet; [1]) was 0. For the same compound, the “Sugarbeets plant response rating” value (sugar beet; [2]) was 0, the “Sugarbeets plant response rating” value (sugar beet; [4]) was 3 and the “Sugarbeets plant response rating” value (sugar beet; [5]) was 7. For the same compound, the “Plant response rating, Sugarbeets” value (sugar beet; [6]) was 6, the “Plant response rating, Sugarbeets” value (sugar beet; [7]) was 7 and the “Sugarbeets plant response rating” value (sugar beet; [8]) was 2. The “Plant response rating, Redroot pigweed” value (pigweed; [1]) was 6, the “Redroot pigweed plant response rating” value (pigweed; [2]) was 6 and the “Redroot pigweed plant response rating” value (pigweed; [4]) was 2. The “Redroot pigweed plant response rating” value (pigweed; [5]) was 9, the “Plant response rating, Redroot pigweed” value (pigweed; [6]) was 9 and the “Plant response rating, Redroot pigweed” value (pigweed; [7]) was 10. For the same compound, the “Redroot pigweed plant response rating” value (pigweed; [8]) was 7, the “Plant response rating, Giant foxtail” value (giant foxtail; [1]) was 0 and the “Giant foxtail plant response rating” value (giant foxtail; [2]) was 3. For the same compound, the “Giant foxtail plant response rating” value (giant foxtail; [3]) was 7, the “Giant foxtail plant response rating” value (giant foxtail; [4]) was 9 and the “Giant foxtail plant response rating” value (giant foxtail; [5]) was 9. The “Plant response rating, Giant foxtail” value (giant foxtail; [6]) was 9, the “Plant response rating, Giant foxtail” value (giant foxtail; [7]) was 10 and the “Giant foxtail plant response rating” value (giant foxtail; [8]) was 6. The “Plant response rating, Rice (0 to 10 scale, 0 is no effect, 10 is complete control)” value (rice; [9]) was 0, the “Rice plant response rating (0 to 10 scale, 0 is no effect, 10 is complete control)” value (rice; [10]) was 0 and the “Rice plant response rating” value (rice; [11]) was 0. The “Rice plant response rating” value (rice; [12]) was 0, the “Plant response rating, Barnyardgrass (0 to 10 scale, 0 is no effect, 10 is complete control)” value (bamyardgrass; [9]) was 0 and the “Barnyardgrass plant response rating (0 to 10 scale, 0 is no effect, 10 is complete control)” value (bamyardgrass; [10]) was 0. The “Barnyardgrass plant response rating” value (bamyardgrass; [11]) was 0, the “Barnyardgrass plant response rating” value (bamyardgrass; [12]) was 0 and the “Plant response rating, Ducksalad (0 to 10 scale, 0 is no effect, 10 is complete control)” value (duck salad; [9]) was 0. For the same compound, the “Ducksalad plant response rating (0 to 10 scale, 0 is no effect, 10 is complete control)” value (duck salad; [10]) was 0, the “Ducksalad plant response rating” value (duck salad; [11]) was 0 and the “Ducksalad plant response rating” value (duck salad; [12]) was 0. For the same compound, the “Plant response rating, Morningglory” value (morningglory; [1]) was 7, the “Morningglory plant response rating” value (morningglory; [2]) was 7 and the “Morningglory plant response rating” value (morningglory; [3]) was 7. The “Morningglory plant response rating” value (morningglory; [4]) was 0, the “Morningglory plant response rating” value (morningglory; [5]) was 0 and the “Plant response rating, Morningglory” value (morningglory; [6]) was 0. The “Plant response rating, Morningglory” value (morningglory; [7]) was 0, the “Morningglory plant response rating” value (morningglory; [8]) was 10 and the “Plant response rating, Nutsedge” value (purple nutsedge; [1]) was 0. For the same compound, the “Nutsedge plant response rating” value (purple nutsedge; [2]) was 0, the “Nutsedge plant response rating” value (purple nutsedge; [4]) was 0 and the “Nutsedge plant response rating” value (purple nutsedge; [5]) was 0. The “Plant response rating, Nutsedge” value (purple nutsedge; [6]) was 0, the “Plant response rating, Nutsedge” value (purple nutsedge; [7]) was 2 and the “Nutsedge plant response rating” value (purple nutsedge; [8]) was 2. For the same compound, the “Plant response rating, Velvetleaf” value (velvetleaf; [1]) was 0, the “Velvetleaf plant response rating” value (velvetleaf; [2]) was 0 and the “Velvetleaf plant response rating” value (velvetleaf; [4]) was 0. For the same compound, the “Velvetleaf plant response rating” value (velvetleaf; [5]) was 0, the “Plant response rating, Velvetleaf” value (velvetleaf; [6]) was 3 and the “Plant response rating, Velvetleaf” value (velvetleaf; [7]) was 5. The “Velvetleaf plant response rating” value (velvetleaf; [8]) was 6, the “Plant response rating, Blackgrass” value (blackgrass; [1]) was 0 and the “Blackgrass plant response rating” value (blackgrass; [2]) was 3. For the same compound, the “Blackgrass plant response rating” value (blackgrass; [3]) was 6, the “Blackgrass plant response rating” value (blackgrass; [4]) was 3 and the “Blackgrass plant response rating” value (blackgrass; [5]) was 7. For the same compound, the “Plant response rating, Blackgrass” value (blackgrass; [6]) was 7, the “Plant response rating, Blackgrass” value (blackgrass; [7]) was 7 and the “Blackgrass plant response rating” value (blackgrass; [8]) was 7. The “Plant response rating, Corn” value (corn; [1]) was 0, the “Corn plant response rating” value (corn; [2]) was 0 and the “Corn plant response rating” value (corn; [3]) was 0. For the same compound, the “Corn plant response rating” value (corn; [4]) was 0, the “Corn plant response rating” value (corn; [5]) was 0 and the “Plant response rating, Corn” value (corn; [6]) was 2. For the same compound, the “Plant response rating, Corn” value (corn; [7]) was 2, the “Corn plant response rating” value (corn; [8]) was 0 and the “Plant response rating, Rape” value (rape; [1]) was 0. For the same compound, the “Rape plant response rating” value (rape; [2]) was 0, the “Rape plant response rating” value (rape; [4]) was 2 and the “Rape plant response rating” value (rape; [5]) was 5. For the same compound, the “Plant response rating, Rape” value (rape; [6]) was 5, the “Plant response rating, Rape” value (rape; [7]) was 8 and the “Rape plant response rating” value (rape; [8]) was 3.
